± gives the expanded uncertainty stated by the source.
Experiment: osmotic coefficient (dimensionless); mn = molality of the nth substance listed, in mol/kg
Details: Liquid, isopiestic method

Question: What does the source list for O=C([O-])[C@H](O)[C@@H](O)C(=O)[O-].[K+].[K+] [dipotassium L-tartrate] + O?
Answer: osmotic coefficient (298.15 K, m1 = 0): 1 ± 0.001; osmotic coefficient (298.15 K, m1 = 0.3635): 0.713 ± 0.014; osmotic coefficient (298.15 K, m1 = 0.604): 0.683 ± 0.016; osmotic coefficient (298.15 K, m1 = 0.7532): 0.675 ± 0.016; osmotic coefficient (298.15 K, m1 = 1.285): 0.677 ± 0.016; osmotic coefficient (298.15 K, m1 = 1.702): 0.691 ± 0.015; osmotic coefficient (298.15 K, m1 = 1.861): 0.691 ± 0.015; osmotic coefficient (298.15 K, m1 = 2.212): 0.704 ± 0.015; osmotic coefficient (298.15 K, m1 = 2.379): 0.711 ± 0.014; osmotic coefficient (298.15 K, m1 = 2.466): 0.705 ± 0.015; osmotic coefficient (298.15 K, m1 = 2.837): 0.719 ± 0.014; osmotic coefficient (298.15 K, m1 = 3.236): 0.728 ± 0.014; osmotic coefficient (298.15 K, m1 = 4.168): 0.759 ± 0.012; osmotic coefficient (298.15 K, m1 = 4.379): 0.77 ± 0.01; osmotic coefficient (298.15 K, m1 = 4.631): 0.771 ± 0.011; osmotic coefficient (298.15 K, m1 = 4.845): 0.775 ± 0.011; osmotic coefficient (298.15 K, m1 = 6.72): 0.805 ± 0.01; osmotic coefficient (298.15 K, m1 = 6.869): 0.804 ± 0.01; osmotic coefficient (308.15 K, m1 = 0): 1 ± 0.001; osmotic coefficient (308.15 K, m1 = 0.3282): 0.721 ± 0.014; osmotic coefficient (308.15 K, m1 = 0.7152): 0.706 ± 0.015; osmotic coefficient (308.15 K, m1 = 0.9198): 0.702 ± 0.015; osmotic coefficient (308.15 K, m1 = 1.135): 0.692 ± 0.015; osmotic coefficient (308.15 K, m1 = 1.327): 0.694 ± 0.015; osmotic coefficient (308.15 K, m1 = 1.854): 0.705 ± 0.015; osmotic coefficient (308.15 K, m1 = 2.215): 0.712 ± 0.014; osmotic coefficient (308.15 K, m1 = 2.842): 0.725 ± 0.014; osmotic coefficient (308.15 K, m1 = 3.585): 0.751 ± 0.012; osmotic coefficient (308.15 K, m1 = 4.177): 0.764 ± 0.012; osmotic coefficient (308.15 K, m1 = 5.047): 0.78 ± 0.011; osmotic coefficient (308.15 K, m1 = 5.836): 0.793 ± 0.01; osmotic coefficient (308.15 K, m1 = 6.435): 0.806 ± 0.01; osmotic coefficient (318.15 K, m1 = 0): 1 ± 0.001; osmotic coefficient (318.15 K, m1 = 0.2468): 0.741 ± 0.013; osmotic coefficient (318.15 K, m1 = 0.3446): 0.745 ± 0.013; osmotic coefficient (318.15 K, m1 = 0.5504): 0.721 ± 0.014; osmotic coefficient (318.15 K, m1 = 0.6181): 0.712 ± 0.014; osmotic coefficient (318.15 K, m1 = 0.9764): 0.707 ± 0.015; osmotic coefficient (318.15 K, m1 = 1.276): 0.702 ± 0.015; osmotic coefficient (318.15 K, m1 = 1.536): 0.712 ± 0.014; osmotic coefficient (318.15 K, m1 = 1.995): 0.723 ± 0.014; osmotic coefficient (318.15 K, m1 = 2.646): 0.737 ± 0.013; osmotic coefficient (318.15 K, m1 = 2.934): 0.751 ± 0.012; osmotic coefficient (318.15 K, m1 = 4.154): 0.777 ± 0.011; osmotic coefficient (318.15 K, m1 = 4.813): 0.791 ± 0.01; osmotic coefficient (318.15 K, m1 = 5.749): 0.804 ± 0.01
